These results are taken from patent publication US10130616B2, “Securinine and norsecurinine analogue compounds for the treatment of myeloid disorders” (Case Western Reserve University, priority 2013, dated 2018).

Each structure is given as a SMILES string. pEC50: −log10 of the molar value.

One data set has as its system leukemic cells. The note with it: cited from earlier work.
Another data set concerns CEBPβ. The note with it: cited from earlier work.
For the next data set, the system named is HL-60 cells. As to conditions: cited from earlier work.
The subject of another data set is p21. The note with it: cited from earlier work.
For data set [1], the system named is 60 cancer cell lines, normal human lymphocytes, normal human bone marrow, mouse embryonic fibroblasts, and human umbilical vein endothelial cells. As to conditions: 60 cancer cell lines and normal cells; cited from earlier work.
Another data set relates to p44/p42 and p38. The note with it: cited from earlier work.
The next data set deals with CD14 and CD11b. As to conditions: flow cytometry; cited from earlier work. (Flow cytometry measures light scatter and fluorescence of single cells or particles in a stream.)
Another data set deals with cell cycle (G0/G1). As to conditions: cited from earlier work.
For data set [2], the system named is HL-60 leukemic cells. The experiment in a line: Nitroblue Tetrazolium (NBT) reduction assay, differentiation of HL-60 leukemic cells. In kind it is cell-based, human. As to conditions: Homo sapiens, HL-60, read-out: HL-60, Dif50. From the text:
In an aspect of the present disclosure, the compounds of the disclosure can be identified using a novel high-throughput screen that is biased to identify agents that have both a high potency and low toxicity in a myeloid disorder disease model, such as an animal or cell model. In some embodiments, the high-throughput screen measures the differentiation of HL-60 leukemic cells using a quantitative nitroblue tetrazolium (NBT) reduction assay. Screening HL-60 cells, human promyelocytic cells, is advantageous as they have been used extensively as a cell line to study myeloid differentiation. Though promyelocytic cells, HL-60 cells were derived from a patient with acute myeloblastic leukemia with maturation, FAB-M2.
This technique has also been widely exploited in HL-60 cells to analyze myelomonocytic differentiation.
The NBT screen works due to changes in the oxidoreductases during differentiation that lead to increases in rates of NBT reduction. NBT is reduced due to the production of superoxide that is catalyzed by an NADPH oxidase. […] NBT is reduced by superoxide from a soluble yellow compound to insoluble blue formazan granules whose formation can be monitored spectrophotometrically at 560 nm as the unreduced dye has minimal absorbance at this wavelength. A quantitative NBT reduction assay is ideal for this type of screen as it is simple, sensitive, quantitative, requires minimal cells, has been proven to have low well to well variability, and the amount of reduced NBT is proportional to the number of cells reducing the dye as well as the amount reduced by each cell.
To discover novel AML differentiation-inducing compounds a rapid high-throughput screen (HTS) was developed and optimized. The screen was designed to be biased to identify compounds that, unlike the majority of known differentiation-inducing agents, have both high potency and low toxicity. The screen measured the differentiation of HL-60 leukemic cells using a quantitative Nitroblue Tetrazolium (NBT) reduction assay, a test that is used extensively as a measure of functional myelomonocytic differentiation. The basis for the screen is unreduced NBT exists as a yellow soluble dye. Differentiated leukemic cells are capable of producing a respiratory burst that can reduce NBT into a blue insoluble compound that can be measured spectrophotometrically. This forward chemical genetics approach allowed the discovery of novel compounds that can act on targets not previously known to be “drugable.” As only live cells can reduce NBT, the screen is biased in identifying relatively nontoxic compounds.
To perform the screen, duplicate plates of HL-60 cells were cultured at a density of 5×10^4 cells/mL with 10 μM of each compound in 96 well plates for 5 days. To determine the relative capability for a compound to induce differentiation compared to known potent inducers, each plate destined for the NBT reduction assay included wells with 0.1% DMSO (vehicle control) and 1 μM ATRA. This approach eliminates any slight day to day variation in NBT reduction values and allows the discovery of compounds with similar or greater efficacy to ATRA. Differentiation was determined in the 96 well plates by incubating the cells with 1 mg/mL of NBT and 200 ng/mL of PMA as the stimulant for the respiratory burst for 35 minutes at 37° C. The reaction was then stopped with HCl and the formazan solubilized with DMSO. Finally, the reaction mixture was read spectrophotometrically at 560 nm in a plate reader.
The securinine and norsecurinine analogues were tested and evaluated on their abilities to affect differentiation and growth of HL-60 cells (Table 1).

Data set [3] concerns HL-60 leukemic cells. The note with it: HL-60 cells; from U.S. patent application Ser. No. 14/029,066; cited from earlier work.
The next data set relates to c-myc. The note with it: cited from earlier work.
For data set [4], the system named is a variety of leukemic cell lines. The note with it: cited from earlier work.

Consider `O=C1C=C2C=C[C@@H]3C[C@@]2(O1)[C@H]1CCCCN31` [Securinine, (6S,11aR,11bS)-9,10,11,11a-tetrahydro-8H-6,11b-methanofuro[2,3-c]pyrido[1,2-a]azepin-2(6H)-one], for which the morphologic changes entry in the data set on leukemic cells is on record as “clear morphologic changes suggestive of monocytic differentiation”. In addition, the CEBPβ expression entry in the data set with CEBPβ is recorded as “time-dependent upregulation”. Moreover, the “proliferation of HL-60 cells” value in the data set with HL-60 cells is “potently inhibits the proliferation of HL-60 cells”. In addition, the p21 protein result in the data set with p21 is given as “upregulated”. Moreover, the toxicity entry in [1] is “low toxicity”. The “phosphorylation of p44/p42 and p38” value in the data set on p44/p42 and p38 is “induces rapid phosphorylation of p44/p42 and p38”. Besides, the “induction of cell surface markers CD14 and CD11b” value with CD14 and CD11b was “induce CD14 and CD11b”. Moreover, the cell cycle distribution result with cell cycle (G0/G1) was “accumulation of cells in G0/G1”. For the same compound, the pEC50 in the data set on HL-60 leukemic cells [2] was 4.82 to 5.00. Besides, the “cells differentiated, NBT reduction assay” value in the data set on HL-60 leukemic cells [3] is approximately 95%. The c-myc expression entry in the data set with c-myc was “potently downregulated”. In addition, in data set [4], the “differentiation of leukemic cell lines” value is listed as “can differentiate a variety of leukemic cell lines”.
